Results from publication PMC7611415 (Chembiochem : a European journal of chemical biology, 2020).

Biological target: T1, acetylcholine-binding protein (AcAChBP) (Aplysia californica, UniProt Q8WSF8)
T1 sequence (Q8WSF8 20-236): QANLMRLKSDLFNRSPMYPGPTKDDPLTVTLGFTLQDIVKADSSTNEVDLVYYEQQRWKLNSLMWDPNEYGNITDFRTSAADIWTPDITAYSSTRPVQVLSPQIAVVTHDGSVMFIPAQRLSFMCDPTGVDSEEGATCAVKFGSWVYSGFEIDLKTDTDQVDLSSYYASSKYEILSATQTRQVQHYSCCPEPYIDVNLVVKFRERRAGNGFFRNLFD
Test: tryptophan fluorescence quenching

Question: For `C[N+]1(C)CCc2cc3c(cc2[C@H]1[C@@H]1OC(=O)c2c1ccc1c2OCO1)OCO3` [N-methylbicuculline], which Kd is on record?
Answer: The Kd was 1200 ± 100 nM.
